# Measurements reported in paper PMC4294347, “Therapeutic potential of ERK5 targeting in triple negative breast cancer” (Oncotarget, 2014).
# Biological target: T1, ERK5 (Homo sapiens, UniProt Q13164)
# T1 construct: gene MAPK7; endogenous ERK5 immunoprecipitated from EGF-treated MDA-MB231 cells
# Assay: in vitro autophosphorylation kinase assay on immunoprecipitated active ERK5, Western blot mobility-shift readout
# Assay type: biochemical
# T1 sequence (Q13164 2-816): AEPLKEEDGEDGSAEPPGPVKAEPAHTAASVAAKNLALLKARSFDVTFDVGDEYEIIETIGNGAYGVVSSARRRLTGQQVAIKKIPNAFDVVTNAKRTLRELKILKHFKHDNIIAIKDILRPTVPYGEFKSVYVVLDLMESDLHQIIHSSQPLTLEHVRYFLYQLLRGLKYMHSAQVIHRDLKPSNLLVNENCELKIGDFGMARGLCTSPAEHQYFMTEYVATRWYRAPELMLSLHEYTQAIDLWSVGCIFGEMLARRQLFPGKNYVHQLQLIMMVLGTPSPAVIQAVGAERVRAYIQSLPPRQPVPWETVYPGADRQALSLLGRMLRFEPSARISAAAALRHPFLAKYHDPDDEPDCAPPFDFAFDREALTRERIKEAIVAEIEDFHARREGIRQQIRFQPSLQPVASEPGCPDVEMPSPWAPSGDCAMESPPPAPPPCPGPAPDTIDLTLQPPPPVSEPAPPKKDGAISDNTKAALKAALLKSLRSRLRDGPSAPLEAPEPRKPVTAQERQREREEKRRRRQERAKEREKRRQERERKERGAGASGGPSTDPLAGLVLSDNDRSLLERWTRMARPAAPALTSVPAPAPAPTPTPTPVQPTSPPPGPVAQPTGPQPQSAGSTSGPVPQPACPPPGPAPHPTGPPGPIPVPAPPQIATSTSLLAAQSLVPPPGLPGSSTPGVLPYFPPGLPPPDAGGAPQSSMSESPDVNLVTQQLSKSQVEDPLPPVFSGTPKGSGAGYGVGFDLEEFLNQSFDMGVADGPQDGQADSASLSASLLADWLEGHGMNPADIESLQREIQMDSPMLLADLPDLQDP
smiles,measurement,value
CN1C/C=C/CCOc2cccc(c2)-c2ccnc(n2)Nc2cccc(c2)C1 [TG02],IC50,0.1 µM
